In patent US11046697B2, “Compounds and compositions useful for treating disorders related to NTRK” (BLUEPRINT MEDICINES CORPORATION, priority 2015, dated 2021):
Where two headings read alike, the source gives them in different places.

Tests used:
[1] = biological target: T1, wild type NTRK1 enzyme (Homo sapiens, UniProt P04629); test: NTRK1 Wild Type Assay at 1 mM ATP; assay type: biochemical; settings: 1 mM ATP; read-out: Enz NTRK1 IC50
T1 construct: purchased BPS Bioscience 40280
Experimental: NTRK1 Wild Type Assay at 1 mM ATP
The reaction was stopped by the addition of 70 μL of Stop buffer (100 mM HEPES pH 7.5, 0.015% Brij 35, 35 mM EDTA and 0.2% of Coating Reagent 3 (Caliper Lifesciences)). The plate was then read on a Caliper EZReader 2 (protocol settings: −1.7 psi, upstream voltage −500, downstream voltage −3000, post sample sip 35s).

[2] = test system: KM12 wild type colon carcinoma cell line harboring the TPM3-NTRK1 fusion protein; test: NTRK wild type cellular assay (CellTiter-Glo growth inhibition); assay type: cell-based; settings: 72 hr, CellTiter-Glo, read-out: KM12 (WT) IC50
Experimental: (§1) NTRK Wild Type and G595R Mutant Cellular Assays Protocol
(§2) KM12 wild type colon carcinoma cell line harboring the TPM3-NTRK1 fusion protein was obtained from the National Cancer Institute (NCI). This line has been previously shown to be dependent upon the NTRK activity derived from the NTRK fusion protein for growth and survival. […] Cells were first plated in 384-well plates at 1000 cells/well in complete media (10% FBS and 1% pen/strep) and incubated overnight at 37° C. Cells were then dosed with test articles at varying concentrations using the Bravo liquid handling system. […] Each compound was run in duplicate per plate. […] 72 hr after dosing, assay plates were developed using CellTiter-Glo (Promega) and resultant luminescence was read on the Envision plate reader. IC50 determinations were calculated using a 4-parameter curve fitting algorithm

[3] = test system: KM12 Cliff (G595R) cell line; test: NTRK G595R mutant cellular assay (CellTiter-Glo growth inhibition); assay type: cell-based; settings: 72 hr, CellTiter-Glo
Experimental: as §1, §2

T1 sequence (P04629 440-796 limits assumed): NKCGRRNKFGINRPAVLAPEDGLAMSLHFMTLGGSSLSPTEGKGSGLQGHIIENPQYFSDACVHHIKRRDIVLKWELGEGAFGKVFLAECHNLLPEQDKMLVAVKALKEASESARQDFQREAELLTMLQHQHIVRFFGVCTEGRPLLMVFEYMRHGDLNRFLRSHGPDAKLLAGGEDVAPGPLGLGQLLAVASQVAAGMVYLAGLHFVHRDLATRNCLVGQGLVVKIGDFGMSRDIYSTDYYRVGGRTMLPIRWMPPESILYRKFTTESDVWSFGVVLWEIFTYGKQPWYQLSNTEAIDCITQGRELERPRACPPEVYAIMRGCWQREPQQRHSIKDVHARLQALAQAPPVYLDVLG

Row | IC50 [1] | IC50 ([2]; Homo sapiens, KM12, 72 h) | IC50 [2] | SMILES | IC50 ([3]; Homo sapiens, KM12, 72 h) | IC50 [3]
1 | 10 to 100 nM | 100 to 1000 nM | – | COc1c(F)cc(F)cc1CNC(=O)c1n[nH]c2ncnc(N[C@@H]3COCC[C@H]3O)c12 [Compound 54] | 100 to 1000 nM | –
2 | 10 to 100 nM | 100 to 1000 nM | – | O=C(N[C@H](CO)c1cc(F)ccc1F)c1n[nH]c2ncnc(N[C@@H]3COCC[C@H]3O)c12 [Compound 56] | 100 to 1000 nM | –
3 | 10 to 100 nM | 10 to 100 nM | – | CN(Cc1cc(F)cnc1Cl)C(=O)c1n[nH]c2ncnc(N[C@@H]3CC[C@@H](O)[C@H]3O)c12 [Compound 60] | 10 to 100 nM | –
4 | 100 to 1000 nM | 100 to 1000 nM | – | O=C(NC(CO)c1cc(F)ccc1F)c1n[nH]c2ncnc(NC3CC(F)CC3O)c12 (stereo not drawn) [Compound 61] | > 1000 nM | –
5 | < 10 nM | 10 to 100 nM | – | CN(Cc1cc(F)cc(F)c1F)C(=O)c1n[nH]c2ncnc(N[C@@H]3CC[C@@H](O)[C@H]3O)c12 [Compound 63] | 10 to 100 nM | –
6 | 10 to 100 nM | 10 to 100 nM | – | O=C(c1n[nH]c2ncnc(N[C@@H]3CC[C@@H](O)[C@H]3O)c12)N1CCC[C@@H]1c1cc(F)ccc1F [Compound 71] | 100 to 1000 nM | –
7 | < 10 nM | < 10 nM | – | O=C(c1n[nH]c2ncnc(N[C@@H]3CCOC[C@H]3O)c12)N1C[C@@H](F)C[C@@H]1c1cncc(F)c1 [Compound 73] | 10 to 100 nM | –
8 | < 10 nM | 10 to 100 nM | – | O=C(c1n[nH]c2ncnc(N[C@@H]3COCC[C@H]3O)c12)N1C[C@@H](F)C[C@@H]1c1cncc(F)c1 [Compound 74] | 10 to 100 nM | –
9 | < 10 nM | < 10 nM | – | O=C(c1n[nH]c2ncnc(N[C@@H]3COC[C@H]3O)c12)N1C[C@@H](F)C[C@@H]1c1cc(F)ccc1F [Compound 78] | 10 to 100 nM | –
10 | < 10 nM | < 10 nM | – | N#C[C@H]1C[C@H](c2cc(F)ccc2F)N(C(=O)c2n[nH]c3ncnc(N[C@@H]4CCC[C@H]4O)c23)C1 [Compound 79] | 10 to 100 nM | –
11 | < 10 nM | < 10 nM | – | O=C(c1n[nH]c2ncnc(N[C@@H]3C[C@@H](O)C[C@H]3O)c12)N1C[C@@H](F)C[C@@H]1c1cc(F)ccc1F [Compound 86] | < 10 nM | –
12 | < 10 nM | < 10 nM | – | O=C(c1n[nH]c2ncnc(N[C@@H]3COCC[C@H]3O)c12)N1C[C@@H](F)C[C@@H]1c1cc(F)ccc1F [Compound 92] | < 10 nM | –
13 | < 10 nM | < 10 nM | – | O=C(c1n[nH]c2ncnc(NC3CC(F)CC3O)c12)N1CC(F)CC1c1cc(F)ccc1F (stereo not drawn) [Compound 95] | < 10 nM | –
14 | < 10 nM | 10 to 100 nM | – | CS(=O)(=O)[C@H]1C[C@@H](O)[C@H](Nc2ncnc3[nH]nc(C(=O)NCc4cc(F)ccc4F)c23)C1 [Compound 97, N-(2,5-difluorobenzyl)-4-(((1R,2R,4R)-2-hydroxy-4-(methylsulfonyl)cyclopentyl)amino)-1H-pyrazolo[3,4-d]pyrimidine-3-carboxamide] | 100 to 1000 nM | –
15 | < 10 nM | < 10 nM | – | CN(Cc1cc(F)ccc1C(F)(F)F)C(=O)c1n[nH]c2ncnc(N[C@@H]3CC[C@@H](O)[C@H]3O)c12 [Compound 99] | < 10 nM | –
16 | 10 to 100 nM | 10 to 100 nM | – | N#C[C@H]1C[C@H](c2cc(F)ccc2F)N(C(=O)c2n[nH]c3ncnc(N[C@@H]4COCC[C@H]4O)c23)C1 [Compound 100] | 100 to 1000 nM | –
17 | 100 to 1000 nM | 100 to 1000 nM | – | O=C(NCc1cc(F)ccc1OC(F)(F)F)c1n[nH]c2ncnc(N[C@@H]3CC[C@@H](O)[C@H]3O)c12 [Compound 101] | 100 to 1000 nM | –
18 | > 1000 nM | > 1000 nM | – | O=C(N[C@@H](c1cc(F)ccc1F)C(F)(F)F)c1n[nH]c2ncnc(N[C@@H]3COCC[C@H]3O)c12 [Compound 103] | > 1000 nM | –
19 | < 10 nM | < 10 nM | – | O=C(c1n[nH]c2ncnc(N[C@H]3[C@H](O)[C@H](O)[C@@H]4C[C@@H]43)c12)N1C[C@@H](F)C[C@@H]1c1cc(F)ccc1F [Compound 104] | < 10 nM | –
20 | < 10 nM | < 10 nM | – | O=C(c1n[nH]c2ncnc(N[C@@H]3CCC[C@@H](O)[C@H]3O)c12)N1C[C@@H](F)C[C@@H]1c1cc(F)ccc1F [Compound 106] | < 10 nM | –
21 | 10 to 100 nM | 100 to 1000 nM | – | O=C(c1n[nH]c2ncnc(N[C@@H]3CC[C@@H](O)[C@H]3O)c12)N1CC(F)(F)C[C@@H]1c1cc(F)cc(F)c1 [Compound 108] | 100 to 1000 nM | –
22 | < 10 nM | 10 to 100 nM | – | CN(Cc1cc(F)ccc1OC(F)(F)F)C(=O)c1n[nH]c2ncnc(N[C@@H]3CC[C@@H](O)[C@H]3O)c12 [Compound 110] | 10 to 100 nM | –

Row | IC50 [1] | IC50 ([2]; Homo sapiens, KM12, 72 h) | IC50 [2] | SMILES | IC50 ([3]; Homo sapiens, KM12, 72 h) | IC50 [3]
23 | 10 to 100 nM | 10 to 100 nM | – | O=C(c1n[nH]c2ncnc(N[C@H]3[C@H](O)[C@H](O)[C@@H]4C[C@@H]43)c12)N1CC(F)(F)C[C@@H]1c1cc(F)ccc1F [Compound 112] | 100 to 1000 nM | –
24 | < 10 nM | < 10 nM | – | O=C(c1n[nH]c2ncnc(N[C@@H]3C[C@@H](C(F)F)[C@@H](O)[C@H]3O)c12)N1C[C@@H](F)C[C@@H]1c1cc(F)ccc1F [Compound 114] | < 10 nM | –
25 | < 10 nM | < 10 nM | – | CS(=O)(=O)C1CC(O)C(Nc2ncnc3[nH]nc(C(=O)N4CC(F)CC4c4cc(F)ccc4F)c23)C1 (stereo not drawn) [Compound 116] | < 10 nM | –
26 | 100 to 1000 nM | 100 to 1000 nM | – | COc1ccc(F)cc1CNC(=O)c1n[nH]c2ncnc(N[C@@H]3CC[C@@H](O)[C@H]3O)c12 [Compound 117] | > 1000 nM | –
27 | 10 to 100 nM | 10 to 100 nM | – | CN(Cc1cc(F)cc(Cl)c1F)C(=O)c1n[nH]c2ncnc(N[C@@H]3CC[C@@H](O)[C@H]3O)c12 [Compound 120] | 10 to 100 nM | –
28 | < 10 nM | < 10 nM | – | O=C(c1n[nH]c2ncnc(N[C@H]3[C@H](O)[C@H](O)[C@@H]4C[C@@H]43)c12)N1C[C@@H](F)C[C@@H]1c1cccc(F)c1 [Compound 122] | < 10 nM | –
29 | < 10 nM | < 10 nM | – | O=C(c1n[nH]c2ncnc(N[C@@H]3CC[C@@H](O)[C@H]3O)c12)N1C[C@@H](F)C[C@@H]1c1cc(F)cc(Cl)c1 [Compound 127] | < 10 nM | –
30 | < 10 nM | 10 to 100 nM | – | N#Cc1cc(F)cc([C@H]2C[C@H](F)CN2C(=O)c2n[nH]c3ncnc(N[C@H]4[C@H](O)[C@H](O)[C@@H]5C[C@@H]54)c23)c1 [Compound 129] | 10 to 100 nM | –
31 | < 10 nM | – | < 10 nM | O=C(c1n[nH]c2ncnc(N[C@@H]3CCC[C@@H](O)[C@H]3O)c12)N1C[C@@H](F)C[C@@H]1c1cc(F)cc(Cl)c1 [Compound 130] | – | < 10 nM
32 | 100 to 1000 nM | – | 100 to 1000 nM | CN(Cc1ccccc1)C(=O)c1n[nH]c2ncnc(N[C@@H]3CC[C@@H](O)[C@H]3O)c12 [Compound 131] | – | 100 to 1000 nM
33 | 10 to 100 nM | 10 to 100 nM | – | CN(Cc1cccc(F)c1)C(=O)c1n[nH]c2ncnc(N[C@@H]3CC[C@@H](O)[C@H]3O)c12 [Compound 132] | 100 to 1000 nM | –
34 | 100 to 1000 nM | – | 100 to 1000 nM | CN(Cc1cccnc1F)C(=O)c1n[nH]c2ncnc(N[C@@H]3CC[C@@H](O)[C@H]3O)c12 [Compound 133] | – | 100 to 1000 nM
35 | 100 to 1000 nM | – | 100 to 1000 nM | CN(Cc1cccc(C#N)c1)C(=O)c1n[nH]c2ncnc(N[C@@H]3CC[C@@H](O)[C@H]3O)c12 [Compound 134] | – | 100 to 1000 nM
36 | < 10 nM | 10 to 100 nM | – | CN(Cc1cc(F)cn(C)c1=O)C(=O)c1n[nH]c2ncnc(N[C@@H]3CCC[C@H]3O)c12 [Compound 136] | 10 to 100 nM | –
37 | 10 to 100 nM | – | 10 to 100 nM | CN(Cc1cccc(Cl)c1)C(=O)c1n[nH]c2ncnc(N[C@@H]3CC[C@@H](O)[C@H]3O)c12 [Compound 137] | – | 10 to 100 nM
38 | 100 to 1000 nM | – | 100 to 1000 nM | CN(Cc1cccnc1Cl)C(=O)c1n[nH]c2ncnc(N[C@@H]3CC[C@@H](O)[C@H]3O)c12 [Compound 138] | – | 100 to 1000 nM
39 | 10 to 100 nM | – | 10 to 100 nM | CN(Cc1cccc(F)c1F)C(=O)c1n[nH]c2ncnc(N[C@@H]3CC[C@@H](O)[C@H]3O)c12 [Compound 139] | – | 10 to 100 nM
40 | 10 to 100 nM | – | 10 to 100 nM | CN(Cc1cccc(C#N)c1F)C(=O)c1n[nH]c2ncnc(N[C@@H]3CC[C@@H](O)[C@H]3O)c12 [Compound 142] | – | 100 to 1000 nM
41 | 10 to 100 nM | – | 10 to 100 nM | O=C(c1n[nH]c2ncnc(N[C@@H]3CC[C@@H](O)[C@H]3O)c12)N1C[C@@H](F)C[C@@H]1c1ccccc1 [Compound 144] | – | 100 to 1000 nM
42 | 100 to 1000 nM | 10 to 100 nM | – | O=C(c1n[nH]c2ncnc(N[C@@H]3CCOC[C@H]3O)c12)N1C[C@@H](F)C[C@@H]1c1ccccc1 [Compound 145] | 100 to 1000 nM | –
43 | 10 to 100 nM | 100 to 1000 nM | – | CN(Cc1cc(F)cn(C)c1=O)C(=O)c1n[nH]c2ncnc(N[C@@H]3CC[C@@H](O)[C@H]3O)c12 [Compound 147] | 100 to 1000 nM | –
